Experimental data: publication PMC5372522, “Bioavailability Comparison of Nine Bioselenocompounds In Vitro and In Vivo” (International Journal of Molecular Sciences, 2017)
One block for each compound: values may come before it.

What was measured:
[1] = set-up: method as in PMID 6076213; details: selenyl group versus sulfhydryl group; cited from earlier work
Caco-2 cells [2] = test: Cell viability assay (CellTiter 96 Aqueous One) in Caco-2 cells; details: 6 h exposure; for dose at or above which cell viability was significantly reduced: p < 0.05
Experimental: (§1) Caco-2 cells were used in the in vitro permeability assay in the next experiment, and the cytotoxicity of bioselenocompounds was assayed 6 h after exposure to evaluate the harmful effects of bioselenocompounds on the cells. The cytotoxicity and/or proliferative effects of bioselenocompounds on HepG2 cells were analyzed 24 and 48 h after exposure.
(§2) A human colon carcinoma cell line (Caco-2) and a human hepatocyte carcinoma cell line (HepG2) were obtained from Riken BioResource Center (Wako, Japan). The composition of the passaging medium for Caco-2 or HepG2 was Eagle’s Minimum Essential Medium (MEM) with 20% FBS, 1% non-essential amino acid (NEAA), and 1% penicillin-streptomycin, or Dulbecco’s Modified Eagle’s Medium (DMEM) with 10% FBS and 1% penicillin-streptomycin, respectively. Caco-2 cells were seeded on a 96-well plate at 5500 cells/well and incubation was carried out for 2 days. […] Cell viability was determined by the CellTiter 96® Aqueous One Solution Cell Proliferation Assay (Promega, Madison, WI, USA) based on mitochondrial respiratory activity. HepG2 cells were seeded on a 96-well plate at 5000 cells/well and incubation was carried out for 1 day. Then, the cells were exposed to a Se compound, and cell viability was determined by using the same protocol as that mentioned above.

HepG2 cells = test: Cell viability / proliferation assay (CellTiter 96 Aqueous One) in HepG2 cells; details: for effect on cell proliferation: 24 h exposure; for dose at which cytotoxicity / reduced cell viability was seen / effect on cell viability / proliferation: 48 h exposure; for dose from which toxicity was dose-dependent: 24 and 48 h exposure
Experimental: as §1, §2

Caco-2 cells [3] = test: In vitro permeability assay using Caco-2 cell monolayers; format: in vitro ADME, human; details: for permeability in the presence of Met: with 10 mM Met versus without
Experimental: The bioselenocompounds were evaluated and compared in accordance with the standard protocol of the in vitro permeability assay using Caco-2 cells.
Figure 3 Permeability from the apical side to the basolateral side of Caco-2 cells. The permeability of the nine bioselenocompounds was compared (a). A 500 μL aliquot of fresh medium containing 1 μg Se/mL of each bioselenocompound was poured into the insert and the medium in the lower chamber was collected after 90 min. Values and bars are means ± SD for 3 wells. Statistical analysis was performed by the Tukey test. […] The effects of Met on the permeability of SeMet and MeSeCys were evaluated (b). Hatched and solid bars represent with and without 10 mM Met, respectively. Points and bars are means ± SD for 3 wells. Statistical analysis include the one-way analysis of variance followed by the Student’s t-test. The level of significance was set at p < 0.05, and is indicated by an asterisk (*).
Confluent Caco-2 cells at the cell density of around 20,000 cells/cm^2 were harvested by trypsinization and suspended in basal medium (Corning, Corning, NY, USA) containing MITO+ Serum Extender (Corning) at the cell density of 4 × 10^5 cells/mL. A 0.5 mL aliquot of the cell suspension was seeded on the inserts of a Falcon 24-Multiwell Insert System (Corning). The inserts were transferred onto a 24-well plate that contained 1 mL of basal medium, and incubation was carried out for 24 h. Then, the basal medium was carefully removed from the wells and the inserts, and 1.0 and 0.5 mL aliquots of the differentiation medium (Entero-STIM) containing MITO+ Serum Extender (Corning) were added to the wells and the inserts, respectively. The plate was incubated for another 3 days to induce the formation of a monolayer of differentiated Caco-2 cells. The medium was carefully removed from the inserts and the inserts were washed with transport buffer (HBSS + 10 mM HEPES, pH 7.4). Then, a 350 μL aliquot of each Se compound solution in transport buffer or this solution with 10 mM L-methionine (Wako) was added to the insert chamber. These inserts were transferred onto a plate and a 50 μL aliquot was withdrawn from the chamber of each insert for measurement of the initial concentration of the donor chamber. One milliliter of transfer buffer was added to the plate wells and the plate was incubated on an orbital shaker at 37 °C for 90 min in a CO2 incubator. The transport buffer in the lower chamber was collected to determine Se concentration 90 min after the incubation. Se concentrations were measured by an inductively coupled plasma mass spectrometer (ICP-MS, Agilent 7700cx, Agilent, Hachiouji, Japan). The Se compound solution in the chamber of each insert was removed and a 300 μL aliquot of 300 μM Lucifer Yellow (LY) solution was added to the upper chamber. Then, the concentration of LY that permeated the lower chamber was determined by a fluorescence photometer (excitation wavelength: 485 nm, emission wavelength: 538 nm). Monolayers producing 0.3%–2.0% LY flux were recognized as intact monolayers of differentiated Caco-2 cells. Monolayers with flux exceeding 2.0% were excluded from the experiment.

Caco-2 and HepG2 cells = test: Proliferative effect under standard culture conditions for Caco-2 and HepG2 cells; format: cell-based, human; details: data not shown
Experimental: as §2

[4] = tested on: extracellular glutathione peroxidase (GPX3); test: Bioavailability in vivo: recovery of serum GPX3 in Se-deficient rats by LC-ICP-MS; details: oral 10 μg Se/rat once a day for 2 days, serum 24 h after administration
Experimental: (§3) Two major serum selenoproteins were detected by LC-ICP-MS (Figure 4a). The peak detected at the retention time of 11.0 min was assigned to extracellular glutathione peroxidase (GPX3), and the peak at the retention time of 13.5 min was assigned to selenoprotein P (SELENOP) according to our previous literature. The abbreviations of the selenoproteins (GPX3 and SELENOP) were adopted in accordance with the latest nomenclature. We used the recovery amounts of serum selenoproteins in Se-deficient rats as the index of Se bioavailability when a selenocompound was administered to an Se-deficient rat. […] Sera sampled from rats administered each bioselenocompound were analyzed for the recovery of Se in the form of selenoproteins by LC-ICP-MS, and their bioavailabilities, namely, the assimilation of Se into GPX3 and SELENOP, are summarized in Figure 4c,d, respectively. Coinciding with a previous study, SELENOP was more efficiently recovered than GPX3 in the Se-deficient rats 24 h after the repletion of the bioselenocompounds except for TMSe^+. There were no significant differences in the recovery of GPX3 among all the bioselenocompounds except for TMSe^+ (Figure 4c). As SELENOP was more efficiently recovered, the recovery of SELENOP by all the bioselenocompounds except TMSe^+ was more obvious than that of GPX3 (Figure 4d). […] Therefore, there were no significant differences in the bioavailability in vivo among all the bioselenocompounds except TMSe^+.
(§4) Specific pathogen free (SPF) male Wistar rats (4 weeks of age) were purchased from Japan SLC (Shizuoka, Japan) and were housed in a humidity-controlled room maintained at 25 ± 2 °C with a 12 h light-dark cycle. The rats were fed a commercial diet (MF, Oriental Yeast Co., Ltd., Tokyo, Japan) and tap water ad libitum. After a one-week acclimation period, diet and water were changed to a Se-deficient diet (Oriental Yeast) and Milli-Q water (18.3 MΩ·cm), respectively. The rat fed the Se-deficient diet and the Milli-Q water for 3 weeks was used as an Se-deficient rat. The rats continuously fed the commercial diet and tap water served as the positive control.
(§5) The Se-deficient rats were orally administered each Se compound in saline at a dose of 10 μg Se/rat once a day for 2 consecutive days. The saline-administered rats served as the negative control. All the rats were sacrificed 24 h after administration by exsanguination under anesthesia. Non-heparinized blood was collected and clotted blood was centrifuged at 1600× g for 10 min to obtain serum. A 20 μL aliquot of the serum was applied to an HPLC coupled with an ICP-MS to analyze the distribution of Se. […]

[5] = set-up: method as in PMID 26243445; details: cited from earlier work
[6] = tested on: selenoprotein P (SELENOP); test: Bioavailability in vivo: recovery of serum SELENOP in Se-deficient rats by LC-ICP-MS; details: oral 10 μg Se/rat once a day for 2 days, serum 24 h after administration
Experimental: as §3, §4, §5

[7] = Caco-2 monolayer, 1 μg Se/mL, 90 min, mean ± SD for 3 wells

Compound: N[C@@H](CS)C(=O)O [Cys]
pKa [1]: 8.3

Compound: C[Se]C[C@H](N)C(=O)O [MeSeCys, Se-Methylseleno-L-cysteine]
dose from which cell viability was significantly increased (proliferation) (Caco-2 cells [2]; dose-dependent): ≥ 0.8 μg Se/mL | effect on cell proliferation (HepG2 cells): stimulated the proliferation | dose at which cytotoxicity / reduced cell viability was seen (HepG2 cells): ≥ 40 μg Se/mL | effect on cell viability / proliferation (HepG2 cells): still induced the cell proliferation at low doses | permeability in the presence of Met (Caco-2 cells [3]; Caco-2 monolayer): reduced

Compound: CSCC[C@H](N)C(=O)O [Met, L-methionine]
proliferative effects (Caco-2 and HepG2 cells): no proliferative effects

Compound: N#C[Se-].[K+] [SeCN^−, potassium selenocyanate]
recovery of serum GPX3 (assimilation of Se) [4]: comparable to selenite | toxicity relative to selenite [5]: less toxic than selenite | dose at which cytotoxicity / reduced cell viability was seen (HepG2 cells): 80 μg Se/mL | recovery of serum SELENOP (assimilation of Se) [6]: comparable to selenite | percentage permeation (Caco-2 cells [3]; [7]): 3.8% ± 0.44%

Compound: N[C@@H](C[Se][Se]C[C@H](N)C(=O)O)C(=O)O [SeCys2, L-selenocystine]
dose at or above which cell viability was significantly reduced (Caco-2 cells [2]): ≥ 0.8 μg Se/mL | dose from which toxicity was dose-dependent (HepG2 cells): ≥ 0.4 μg Se/mL

Compound: N[C@@H](C[SeH])C(=O)O [SeCys, selenocysteine]
pKa [1]: 5.2

permeability in the presence of Met (Caco-2 cells [3]; Caco-2 monolayer): reduced
Compound: C[Se]CC[C@H](N)C(=O)O [SeMet, seleno-L-methionine]
effect on cell proliferation (HepG2 cells): stimulated the proliferation | effect on cell viability / proliferation (HepG2 cells): marginal cytotoxicity rather than a proliferative effect

Compound: C[Se]C1OC(CO)C(O)C(O)C1NC(C)=O (stereo not drawn) [SeSug1, Se-methylseleno-N-acetylgalactosamine]
recovery of serum GPX3 (assimilation of Se) [4]: equivalent effect to selenite | recovery of serum SELENOP (assimilation of Se) [6]: equivalent effect to selenite

Compound: C[Se+](C)C.[I-] [TMSe^+, Trimethylselenonium iodide]
recovery of serum GPX3 (assimilation of Se) [4]: did not have any apparent effects | recovery of serum SELENOP (assimilation of Se) [6]: did not have any apparent effects | percentage permeation (Caco-2 cells [3]; Caco-2): 3% ± 0.42%

Compound: O=[Se]([O-])[O-].[Na+].[Na+] [selenite, Sodium selenite]
recovery of serum GPX3 (assimilation of Se) [4]: recovery of both selenoproteins was observed | dose at or above which cell viability was significantly reduced (Caco-2 cells [2]): ≥ 8.0 μg Se/mL | dose from which toxicity was dose-dependent (HepG2 cells): ≥ 0.8 μg Se/mL | recovery of serum SELENOP (assimilation of Se) [6]: recovery of both selenoproteins was observed | percentage permeation (Caco-2 cells [3]; [7]): 3.4% ± 0.066%

percentage permeation (Caco-2 cells [3]; Caco-2): 0.81% ± 0.36%
Compound: Lucifer Yellow [LY, reference compound]

Compound: S-methylcysteine [MeCys]
proliferative effects (Caco-2 and HepG2 cells): no proliferative effects
